Laboratory results published in patent publication US20180008612A1 (priority 2016, published 2018).
Values joined by “and” are separate entries in the source; they are usually repeats but may differ in a detail not shown here. Equal entries are not always repeated. Where two headings read alike, the source gives them in different places.

Key:
[1] = Antioxidant effect on galantamine stability under normal and stress conditions; format: physicochemical
[2] = Skin permeation, Franz diffusion cells; format: in vitro ADME, human; conditions: for Enhancement Ratio: human
Experimental: The flux can be measured with a standard procedure using Franz diffusion cells, and the experiments were done on human cadaver skin. With Franz cells, in each Franz diffusion cell a disc (diameter of 25 mm) of human cadaver skin is placed on the receptor compartment. A transdermal delivery system is cut the same size as the skin and placed over the diffusion area in the center of the receptor. The donor compartment is then added and clamped to the assembly. At time 0, receptor medium solution 14 mL is added into the receptor compartment and the cell maintained at 32° C. Samples of the receptor compartment are taken periodically to determine the skin flux and analyzed by HPLC.
Skin permeation of various formulations were tested. The results are provided in FIGS. 1, and 2 and Tables 5 and 6. Higher the amount of the galantamine in the adhesives will increase the penetration, but when over the saturation point, the transdermal system will crystalize, and result a low penetration rate.
When adding an enhancer, it might improve the penetration rate. […] When increase the amount of the enhancer, it might not improve the penetration rate.
A co-solvent helps dissolving the drug in the adhesive but it might also help with the penetration rate.

[3] = galantamine with the antioxidant (label), 25′C
[4] = galantamine with the antioxidant (label), 60′C-14 D
[5] = galantamine with the antioxidant (label), 80′C-1 D
[6] = galantamine with the antioxidant (label), 80′C-4 D

| Compound | Total Impurity Amount % [1, 3] [%] | Total Impurity Amount % [1, 4] [%] | Total Impurity Amount % [1, 5] [%] | Total Impurity Amount % [1, 6] [%] | other results |
| --- | --- | --- | --- | --- | --- |
| Cc1cc(C(C)(C)C)c(O)c(C(C)(C)C)c1 [Butylated Hydroxytoluene (BHT), butylated hydroxytoluene] | 0.11 | 0.33 | 0.51 | 1.18 | – |
| CCCCCCCCCCCCCC(=O)OC(C)C [IPM, isopropyl myristate] | – | – | – | – | Enhancement Ratio ([2]; 3 % w/w): 2; Enhancement Ratio ([2]; 5 % w/w): 1 |
| O=[N+]([O-])C(Br)(CO)CO [Bronopol, bronopol] | 0.18 | 0.81 | 0.69 | 1.82 | – |
| CC(O)CO (stereo not shown) [Propylene Glycol, propylene glycol] | – | – | – | – | Enhancement Ratio ([2]; 5 % w/w): 4; Enhancement Ratio ([2]; 10 % w/w): 7 |
| O=S([O-])[O-].[Na+].[Na+] [Sodium Sulfite, sodium sulfite] | 0.14 | – | – | 1.69 | Total Impurity Amount % [1]: 1.04% and 0.74% |
| OCC(O)CS (stereo not shown) [Monothioglycerol, monothioglycerol] | 0.16 | 1.09 | 0.51 | 1.49 | – |
| CCCCCCCCCCCCCCCC(=O)OC[C@H](O)[C@H]1OC(=O)C(O)=C1O [Ascorbyl Palmitate, ascorbyl palmitate] | 0.12 | 0.58 | 0.28 | 1.13 | – |
| vitamin E | 0.12 | – | – | 1.77 | Total Impurity Amount % [1]: 0.84% and 0.69% |
| CCCCCCCC/C=C\CCCCCCCC(=O)OCC [Ethyl Oleate, ethyl oleate] | – | – | – | – | Enhancement Ratio ([2]; 3 % w/w): 2 |
| O=S([O-])S(=O)(=O)[O-].[Na+].[Na+] [Sodium metabisulfite, sodium metabisulfite] | 0.17 | 0.45 | 0.14 | 0.93 | – |
| CCOCCOCCO [Transcutol P, diethylene glycol monoethyl ether] | – | – | – | – | penetration rate [2]: improves the penetration rate; Enhancement Ratio ([2]; 5 %): 5; Enhancement Ratio ([2]; 5 % w/w): 4 |
| O=S([O-])([O-])=S.[Na+].[Na+] [Sodium Thiosulfate, sodium thiosulfate] | – | – | – | – | Total Impurity Amount % [1]: 0.13% and 1.02% and 0.67% and 2.20% |
| CCCCCCCC/C=C\CCCCCCCC(=O)O [Oleic Acid, oleic acid] | – | – | – | – | Enhancement Ratio ([2]; 3 % w/w): 1 |
| O=C1O[C@H]([C@H](O)CO)C(O)=C1O [Erythorbic Acid, erythorbic acid] | 0.50 | – | – | 0.87 | Total Impurity Amount % [1]: 1.35% and 0.74% |
| O=S=O [Sulfur Dioxide, sulfur dioxide] | 0.16 | 1.04 | 0.54 | 1.83 | – |
